The test system of one assay is LUHMES cells. The assay can be described thus: NeuroGlycoTest (metabolic glycoengineering, KE3 assay). The settings on record: d6 LUHMES, 6 h. In kind it is cell-based, human. On the procedure: The NeuroGlycoTest was performed as previously described (Kranaster et al. [2020]). In brief, d6 LUHMES cells were co-treated for 6 h with the respiratory chain inhibitors together with 10 µM azide-tagged mannosamine precursor sugar (Ac4ManNAz), synthesized according to published procedures (Saxon et al. [2002]). After PBS-washing, a dibenzylcyclooctyne-PEG4-biotin (DBCO-biotin) [100 μM] (Jena Bioscience, Jena, Germany) solution was added for 20 min at 37 °C to label the incorporated azide-tagged sialic acids (= SiaAz).
For detection of MGE-sialoproteins, cells in 6-well plates were lyzed in Laemmli buffer and boiled for 5 min at 95 °C. […] Relative band intensity was quantified using a self-developed image evaluation software. […] At least two blots from independent experiments were quantified.
For detection of neurite MGE, cells in 8-well µ-slides were further incubated with a mixture of streptavidin-Alexa Fluor 488 [8 μg/ml] […] The processed images were analyzed using the SUIKER software (Karreman et al. [2019]) that simultaneously, from the same image, detected and quantified viability (based on the Hoechst staining), neurite area (based on the Calcein staining) and neurite MGE sialic acids (based on the streptavidin-Alexa Fluor 488 label). […]

A further assay concerns cI. Details: method as in van der Stel et al. 2020. Particulars: liver and kidney cells ref van der Stel et al. 2020; read-out: IC50 for inhibition of cI; cited from earlier work.
Another assay relates to cII. Details: method as in van der Stel et al. 2020. Particulars: read-out: Concentration at which 50% inhibition was observed; HepG2 cells ref van der Stel et al. 2020; cited from earlier work.

As for `CCCCCC[C@H]1C(=O)O[C@H](C)[C@H](NC(=O)c2cccc(NC=O)c2O)C(=O)O[C@@H](C)[C@@H]1OC(=O)CC(C)C` [Antimycin A], in the assay with LUHMES cells (highest non-cytotoxic concentration), the “Reduction of neurite area in the NeuroGlycoTest” value is “more than 25%”. Further, the “Neurite MGE signal / proteostasis disturbance (in words)” value in the assay with LUHMES cells (highest non-cytotoxic concentration (antimycin A 50 µM)) was “strong decrease”.
Regarding `COc1cc(CNC(=O)CCCC/C=C/C(C)C)ccc1O` [Capsaicin], in the assay on cI, the IC50 is above 200 µM.
As to `Cc1ccccc1C(=O)Nc1cccc(OC(C)C)c1` [Mepronil], the IC50 in the assay with cII was above 100 µM.

The values are drawn from PMC7870626, “Neurotoxicity and underlying cellular changes of 21 mitochondrial respiratory chain inhibitors” (Archives of Toxicology, 2021).
